≈ marks a conversion by molar mass, not a printed value.

The test system of assay [1] is super sensitive Gram-negative Escherichia coli (E. coli) BAS849. Briefly: Antibacterial activity, microbroth dilution MIC, E. coli BAS849. Type of assay: cell-based. As to conditions: Escherichia coli; E. coli BAS849, microbroth dilution; read-out: MIC, BAS849.
The test system of assay [2] is control Gram-negative E. coli 25922 strain. As to the kind of experiment: Antibacterial activity, microbroth dilution MIC, E. coli 25922. Type of assay: cell-based, Escherichia coli. As to conditions: Escherichia coli; E. coli 25922, microbroth dilution; read-out: MIC, 25922. In general terms: Dilution methods test growth across graded concentrations, often in twofold steps.

Assay [3] relates to Gram-positive Staphylococcus aureus (S. aureus) 29213. Briefly: Antibacterial activity, microbroth dilution MIC, S. aureus 29213. As to conditions: Staphylococcus aureus; S. aureus 29213, microbroth dilution; read-out: MIC, 29213. Type of assay: cell-based.
Assay [4] has as its system quinolone resistant E. coli LZ3111. Briefly: Antibacterial activity, MIC, quinolone resistant E. coli LZ3111. Type of assay: cell-based, Escherichia coli. As to conditions: Escherichia coli, read-out: MIC, LZ3111. The text has this: (§1) The antibacterial activity from a microbroth dilution method may be presented as the minimum inhibitory concentration (MIC in […]). The MIC value is the lowest concentration of a drug which prevents macroscopically visible bacterial growth under test conditions.
Mutations in these regions are known to confer a high level resistance to the quinolone class of antibiotics.

For assay [5], the system named is Acinetobacter baumannii (A. baumannii) BAA747. Briefly: Antibacterial activity, MIC, A. baumannii BAA747. Type of assay: cell-based. Particulars: Acinetobacter baumannii; A. baumannii BAA747; read-out: MIC BAA747.
Assay [6] has as its system Klebsiella pneumoniae (K. pneumoniae) 35657. Briefly: Antibacterial activity, MIC, K. pneumoniae 35657. Format: cell-based. Particulars: Klebsiella pneumoniae.
Assay [7] relates to resistant A. baumannii MXX2240 (MDR clinical isolate). Briefly: Antibacterial activity, MIC, resistant A. baumannii MXX2240. Type of assay: cell-based, Acinetobacter baumannii. As to conditions: Acinetobacter baumannii, resistant A. baumannii MMX2240, MDR clinical isolate; read-out: MIC MMX2240.
Assay [8] concerns resistant K. pneumoniae MXX1232 (MDR clinical isolate). Briefly: Antibacterial activity, MIC, resistant K. pneumoniae MXX1232. Type of assay: cell-based, Klebsiella pneumoniae. Particulars: Klebsiella pneumoniae; resistant K. pneumoniae MMX1232, MDR clinical isolate; read-out: MIC MMX1232.
Assay [9] relates to Pseudomonas aeruginosa (P. aeruginosa) 27853. Briefly: Antibacterial activity, MIC, P. aeruginosa 27853. Type of assay: cell-based. Particulars: Pseudomonas aeruginosa, P. aeruginosa 27853; read-out: MIC 27853.
Source text: as §1
Antibacterial activity of test compounds against the Gram-negative bacterium Pseudomonas aeruginosa (P. aeruginosa) 27853 is shown in Table 5.

As usually defined, the MIC is the smallest concentration in the dilution series that meets the test's criterion for growth inhibition. Take `CCc1c(-c2cnc(N3CCCC3)cn2)[nH]c(=O)c(C(=O)O)c1O` [Cpd 313, 5-ethyl-4-hydroxy-2-oxo-6-(5-(pyrrolidin-1-yl)pyrazin-2-yl)-1,2-dihydropyridine-3-carboxylic acid]: the minimum inhibitory concentration (MIC) in [1] was < 1 µg/mL; in [2], 12.5 to 150 µg/mL (≈ 37.8 to 454 µM); in [3], 12.5 to 150 µg/mL (≈ 37.8 to 454 µM); in assay [4] it was 12.5 to 150 µg/mL (≈ 37.8 to 454 µM); in assay [5] it was 3.5 to 12.5 µg/mL (≈ 10.6 to 37.8 µM); in assay [6] it was 3.5 to 12.5 µg/mL (≈ 10.6 to 37.8 µM). Besides, the MIC in assay [7], in assay [8] and in assay [9] was 12.5 to 150 µg/mL (≈ 37.8 to 454 µM) throughout.
As to `CN(C)c1ccc(-c2[nH]c(=O)c(C(=O)O)c(O)c2CO)cc1` [Cpd 331, 6-(4-(dimethylamino)phenyl)-4-hydroxy-5-(hydroxymethyl)-2-oxo-1,2-dihydropyridine-3-carboxylic acid], the minimum inhibitory concentration (MIC) in assay [1] lay within 1 to 3.5 µg/mL (≈ 3.29 to 11.5 µM); in assay [2], 12.5 to 150 µg/mL (≈ 41.1 to 493 µM); in assay [3], 12.5 to 150 µg/mL (≈ 41.1 to 493 µM); in [4] it was 3.5 to 12.5 µg/mL (≈ 11.5 to 41.1 µM); in assay [5] it was 12.5 to 150 µg/mL (≈ 41.1 to 493 µM); in [6], 12.5 to 150 µg/mL (≈ 41.1 to 493 µM). Moreover, the MIC in assay [7], in assay [8] and in assay [9] was 12.5 to 150 µg/mL (≈ 41.1 to 493 µM) each time.
Take `CC#Cc1c(-c2ccc(N(C)C)cc2)[nH]c(=O)c(C(=O)O)c1O` [Cpd 333, 6-(4-(dimethylamino)phenyl)-4-hydroxy-2-oxo-5-(prop-1-ynyl)-1,2-dihydropyridine-3-carboxylic acid]: the MIC was 1 to 3.5 µg/mL (≈ 3.2 to 11.2 µM) in [1]; 12.5 to 150 µg/mL (≈ 40 to 480 µM) in assay [2]; 12.5 to 150 µg/mL (≈ 40 to 480 µM) in assay [3]; 12.5 to 150 µg/mL (≈ 40 to 480 µM) in assay [4]; 12.5 to 150 µg/mL (≈ 40 to 480 µM) in assay [5]; 12.5 to 150 µg/mL (≈ 40 to 480 µM) in [6]. The MIC in assay [7], in [8] and in [9] was 12.5 to 150 µg/mL (≈ 40 to 480 µM) in each case.
As for `CCc1c(-c2ccc(N3CCC(O)(CC)C3)cc2)[nH]c(=O)c(C(=O)O)c1O` (stereo not drawn) [Cpd 288, 5-ethyl-6-[4-(3-ethyl-3-hydroxypyrrolidin-1-yl)phenyl]-4-hydroxy-2-oxo-1,2-dihydropyridine-3-carboxylic acid], the minimum inhibitory concentration (MIC) was < 1 µg/mL in [1]; 1 to 3.5 µg/mL (≈ 2.69 to 9.4 µM) in assay [2]; 1 to 3.5 µg/mL (≈ 2.69 to 9.4 µM) in assay [3]; 3.5 to 12.5 µg/mL (≈ 9.4 to 33.6 µM) in assay [4]; 1 to 3.5 µg/mL (≈ 2.69 to 9.4 µM) in assay [5]; 3.5 to 12.5 µg/mL (≈ 9.4 to 33.6 µM) in [6]. The MIC in [7] is 1 to 3.5 µg/mL (≈ 2.69 to 9.4 µM); in [8] it was 12.5 to 150 µg/mL (≈ 33.6 to 403 µM); in assay [9], 3.5 to 12.5 µg/mL (≈ 9.4 to 33.6 µM).
As to `Cc1c(-c2ccc(N3CCC(N(C)C)C3)cn2)[nH]c(=O)c(C(=O)O)c1O` (stereo not drawn) [Cpd 316, 6-(5-(3-(dimethylamino)pyrrolidin-1-yl)pyridin-2-yl)-4-hydroxy-5-methyl-2-oxo-1,2-dihydropyridine-3-carboxylic acid], the MIC in assay [1], in assay [2], in assay [3], in assay [4], in [5] and in assay [6] was 12.5 to 150 µg/mL (≈ 34.9 to 419 µM) each time. In addition, the MIC in [7], in [8] and in [9] was 12.5 to 150 µg/mL (≈ 34.9 to 419 µM) throughout.
In the case of `Cc1c(-c2ccc(N3CCCC3)cn2)[nH]c(=O)c(C(=O)O)c1O` [Cpd 315, 4-hydroxy-5-methyl-2-oxo-6-(5-(pyrrolidin-1-yl)pyridin-2-yl)-1,2-dihydropyridine-3-carboxylic acid], the MIC was in the range of 1 to 3.5 µg/mL (≈ 3.17 to 11.1 µM) in assay [1]; 12.5 to 150 µg/mL (≈ 39.6 to 476 µM) in [2]; 12.5 to 150 µg/mL (≈ 39.6 to 476 µM) in assay [3]; 12.5 to 150 µg/mL (≈ 39.6 to 476 µM) in [4]; 12.5 to 150 µg/mL (≈ 39.6 to 476 µM) in assay [5]; 12.5 to 150 µg/mL (≈ 39.6 to 476 µM) in assay [6]. For the same compound, the MIC in assay [7], in [8] and in assay [9] was 12.5 to 150 µg/mL (≈ 39.6 to 476 µM) throughout.
Consider `CCc1c(-c2ccc(O)cc2)[nH]c(=O)c(C(=O)O)c1O` [Cpd 334, 5-ethyl-4-hydroxy-6-(4-hydroxyphenyl)-2-oxo-1,2-dihydropyridine-3-carboxylic acid], for which the minimal inhibitory concentration (MIC) in [1] was 3.5 to 12.5 µg/mL (≈ 12.7 to 45.4 µM); in [2] it was 12.5 to 150 µg/mL (≈ 45.4 to 545 µM); in assay [3], 12.5 to 150 µg/mL (≈ 45.4 to 545 µM); in assay [4], 12.5 to 150 µg/mL (≈ 45.4 to 545 µM); in assay [5], 12.5 to 150 µg/mL (≈ 45.4 to 545 µM); in [6], 12.5 to 150 µg/mL (≈ 45.4 to 545 µM). For the same compound, the MIC in assay [7], in assay [8] and in assay [9] was 12.5 to 150 µg/mL (≈ 45.4 to 545 µM) throughout.

(Values after patent US9650395B2, “Antibacterial compounds and methods for use” (PTC Therapeutics, Inc., priority 2011, dated 2017).)
